The target in one experiment is T1, HDAC8 (Homo sapiens, UniProt Q9BY41).
T1 sequence (Q9BY41 1-377): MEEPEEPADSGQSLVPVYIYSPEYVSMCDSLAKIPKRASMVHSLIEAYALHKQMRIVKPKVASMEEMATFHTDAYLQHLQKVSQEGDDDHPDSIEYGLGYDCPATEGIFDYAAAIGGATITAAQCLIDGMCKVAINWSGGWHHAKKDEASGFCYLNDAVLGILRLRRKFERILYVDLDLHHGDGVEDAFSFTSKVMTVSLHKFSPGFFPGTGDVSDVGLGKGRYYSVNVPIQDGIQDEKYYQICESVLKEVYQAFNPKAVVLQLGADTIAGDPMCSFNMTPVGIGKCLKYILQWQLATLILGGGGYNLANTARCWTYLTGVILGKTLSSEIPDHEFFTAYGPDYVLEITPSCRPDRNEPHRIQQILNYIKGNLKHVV
The arrangement: method as in PMID 33570940. The following applies: cited from earlier work.

In a further experiment the test system is MDA-MB-231 cells. Nature of the experiment: Cell viability (MTT) assay, MDA-MB-231. The format is cell-based. Particulars: human breast cancer cells, read-out: IC50 of cytotoxicity MDA-MB-231. The text has this: (§1) Human breast cancer MDA-MB-231 cells and gastric cancer SCM-1 cells were purchased from the American Type Culture Collection (Manasas, VA, USA). SCC2095 human oral cancer cells were kindly provided by Professor Susan R. Mallery (The Ohio State University). Normal human lung fibroblasts (NHLFs; CC-2512) were purchased from the Lonza (Walkersville, MD, USA). SCM-1 cells were maintained in RPMI-1640 medium (Invitrogen, Carlsbad, CA, USA); MDA-MB-231 and SCC2095 cells were maintained in DMEM/F12 (Invitrogen); and NHLFs were maintained in FGM™-2 medium (Lonza) with 2% serum, supplemented with 10% heat-inactivated foetal bovine serum (FBS; Gibco, Grand Island, NY, USA). All cells were cultured at 37 °C in a humidified incubator containing 5% CO2 and 95% relative humidity.
(§2) To assess cell viability, cells were seeded in three replicates into 96-well plates at a density of 5×10^3/well for 24 h following incubation with compounds at the indicated concentrations. Then, cell viability was assessed with 3–(4,5-dimethylthiazol-2-yl)-2,5-diphenyltetrazolium bromide (MTT) solution (0.5 mg/mL) for 4h as described previously. After removing the medium, 200 µL of DMSO was added, and then the absorbance was measured at 570 nm using a plate reader (BMG LABTECH, Germany).

Another experiment concerns SCM-1 cells. The experiment can be described thus: Cell viability (MTT) assay, SCM-1. The format is cell-based. The following applies: human gastric cancer cells, read-out: IC50 of cytotoxicity SCM-1.
Text: as §1, §2

The test system of experiment [1] is HeLa nuclear HDACs. Nature of the experiment: HDAC inhibition assay, HeLa nuclear extract (mixture of class I HDACs 1, 2, and 3). The following applies: read-out: IC50 HeLa nuclear HDACs, Boc-Lys-(AMC) substrate.
Experiment [2] deals with HeLa nuclear HDACs. The arrangement: method as in PMID 33845233. Particulars: introduction, earlier work; read-out: IC50 class I HDACs; cited from earlier work.
In experiment [3] the test system is SCC2095 cells. Nature of the experiment: Cell viability (MTT) assay, SCC2095. The format is cell-based. Particulars: Homo sapiens, 48 h, human oral cancer cells, read-out: IC50 of cytotoxicity SCC2095. As for the experimental part: Human breast cancer MDA-MB-231 cells and gastric cancer SCM-1 cells were purchased from the American Type Culture Collection (Manasas, VA, USA). SCC2095 human oral cancer cells were kindly provided by Professor Susan R. Mallery (The Ohio State University).
as §2

In experiment [4] the test system is SCC2095 cells. The experiment can be described thus: Western blotting of caspase- and HDAC-related proteins. The following applies: SCC2095, DNA damage biomarker, western blot. The format is cell-based, human. The method, then:
The protein expression was performed as previously described. Proteins were resolved on 10% SDS-PAGE, then transferred to PVDF (Bio-Rad) membranes. After blocking with 5% skimmed milk in PBS containing 0.1% Tween 20, the membranes were probed with primary antibodies against interest target proteins at 4 °C overnight. The following primary antibodies were used: […], cleaved caspase 9, acetyl α-tubulin, Hsp90, Histone H2A.X, p38, p-^180Thr/^182Tyr p38, PPARγ, and p21 were purchased from Cell Signalling Technologies (Beverly, MA, USA); pro-caspase 8, Millipore; β-actin, Sigma-Aldrich (St. Louis, MO, USA). Then, the immunoblots were washed and exposed to HRP-conjugated secondary antibodies at room temperature for 1 h. The immunoblots were examined by enhanced chemiluminescence.

Experiment [5] relates to SCC2095 cells. The experiment can be described thus: ROS determination by flow cytometry (DCFH-DA probe). The format is cell-based, human. The following applies: SCC2095, 12 h or 24 h. As for the experimental part: Cells (2 × 10^5) were treated with tested compounds in 6-well plates for 24 h or 48 h, then washed with ice-cold PBS twice and harvested with trypsin. Cells were incubated with 5 µL Annexin V- FITC/PI (BD Pharmingen, San Diego) for 15 min in the dark condition. Then, the cells were measured by BD FACSCanto flow cytometer (BD, Franklin Lakes, NJ). For ROS determination, DMSO or H2O2 or compound 7 g-treated cells were stained with the ROS probe (DCFH-DA; 5 µM) and detected the DCFH-DA fluorescence.

Where two headings read alike, the source gives them in different places.

As a reminder, the IC50 is the concentration that inhibits the measured activity by half. In the case of `O=C(NO)c1ccc(CN2C(=O)c3ccccc3S2(=O)=O)cc1-c1ccccc1` [Compound 1], on HDAC8, the IC50 was 70 nM. For `CC/C(=C(\c1ccccc1)c1ccc(OCCN(C)C)cc1)c1ccccc1` [Tamoxifen, reference compound], the IC50 in the experiment on MDA-MB-231 cells was 11400 ± 900 nM. Take `CC(=O)O[C@H]1C(=O)[C@@]2(C)[C@H]([C@H](OC(=O)c3ccccc3)[C@]3(O)C[C@H](OC(=O)[C@H](O)[C@@H](NC(=O)c4ccccc4)c4ccccc4)C(C)=C1C3(C)C)[C@]1(OC(C)=O)CO[C@@H]1C[C@@H]2O` [Paclitaxel, reference compound]: the IC50 in the experiment on SCM-1 cells was found to be 80 ± 10 nM.

Regarding `NC(=O)c1ccc2c(c1)N(Cc1ccc(C(=O)NO)cc1)c1ccccc1S2` [LH4f, reference compound], the IC50 with HeLa nuclear HDACs [1] is 100 ± 20 nM; in the experiment on HeLa nuclear HDACs [2], 100 nM.

As for `O=C(NCC1(c2nc(-c3ccccc3)cs2)CCOCC1)c1cccc(-c2noc(C(F)(F)F)n2)c1` [TMP269, reference compound], the IC50 with SCC2095 cells [3] worked out at 18100 ± 3800 nM. The “phosphorylation of Histone H2A.X” value in the experiment on SCC2095 cells [4] was “increased”. Besides, in the experiment on SCC2095 cells [5], the ROS generation entry is “increased”.

(Values after PMC11423540, “Synthesis and biological evaluation of ortho-phenyl phenylhydroxamic acids containing phenothiazine with improved selectivity for class IIa histone deacetylases” (Journal of Enzyme Inhibition and Medicinal Chemistry, 2024).)
